Our source for the IC50 values is patent publication US8765736B2, “Benzenesulfonamide compounds and the use thereof” (Purdue Pharma L.P., priority 2007, dated 2014).

Assay [1] concerns the target T1, N-type calcium channel (NTCC) (Homo sapiens, UniProt Q00975).
T1 construct: endogenous in cells; host or cells: IMR32 cells (ATCC), differentiated with dibutyryl cAMP and bromodeoxyuridine
The experiment in a line: FLIPR calcium mobilization assay for N-type calcium channel. It counts as cell-based. To be noted: calcium mobilization in vitro assay; differentiated IMR32 cells, 5 μM nitrendipine, 90 mM KCl. As for the experimental part: Cell maintenance and differentiation. Unless noted otherwise, cell culture reagents were purchased from Mediatech of Herndon, Md. IMR32 cells (American Type Culture Collection, ATCC, Manassas, Va.) were routinely cultured in growth medium consisting of minimum essential medium containing 10% fetal bovine serum (FBS, Hyclone, Logan, Utah), 100 U/mL penicillin, 100 μg/mL streptomycin, 2 mM L-glutamine, 1 mM sodium pyruvate, and 1×MEM non-essential amino acids. 80-90% confluent flasks of cells were differentiated using the following differentiation medium: Growth medium plus 1 mM dibutyryl cyclic AMP (Sigma, St. Louis, Mo.), and 2.5 μM bromodeoxyuridine (Sigma). Cells were differentiated for 8 days by replacing differentiation medium every 2-3 days.
FLIPR Calcium Mobilization Assay for N-type Calcium Channel. One day prior to performing this assay, differentiated IMR32 cells were treated with 1× CellStripper, and seeded on poly-D-lysine-coated 96-well clear-bottom black plates (Becton Dickinson, Franklin Lakes, N.J.) at 200,000 cells/well. On the day of the assay, the cell plates were washed with IMR32 buffer (127 mM NaCl, 1 mM KCl, 2 mM MgCl2, 700 μM NaH2PO4, 5 mM CaCl2, 5 mM NaHCO3, 8 mM HEPES, 10 mM glucose, pH 7.4), then pre-stimulated with KCl and loaded as follows: 0.05 mL of IMR32 buffer, 0.05 mL of each compound tested diluted in IMR32 buffer containing 20 μM nitrendipine (Sigma), and 0.1 mL KCl dissolved in IMR32 buffer, plus Fluo-4 were added (3 μM final concentration, Molecular Probes, Eugene, Oreg.). Final test compound concentrations ranged from about 846 pM to about 17 μM, final nitrendipine concentration was 5 μM, and final KCl concentration was 90 mM. After 1 hour, the cells were washed twice with 0.05 mL of each compound tested in nitrendipine-containing IMR32 buffer (no KCl or Fluo-4), and then replaced with 0.1 mL of each compound tested in nitrendipine-containing IMR32 buffer. Plates were then transferred to a Fluorimetric Imaging Plate Reader (FLIPR^96, Molecular Devices, Inc., Sunnyvale, Calif.) for assay. The FLIPR measured basal Fluo-4 fluorescence for 315 seconds (i.e., 5 minutes and 15 seconds), then added 0.1 mL KCl agonist dissolved in IMR32 buffer and measured fluorescence for another 45 seconds. Final test compound concentrations on the cells after FLIPR read ranged from about 846 pM to about 17 μM, final nitrendipine concentration was 5 μM, and final KCl concentration was 90 mM. Data were collected over the entire time course and analyzed using Excel, Graph Pad Prism (version 3.02, Graph Pad, San Diego, Calif.), or an in-house non-linear regression analysis software.

The target in assay [2] is T2, recombinant rat L-type calcium channel (LTCC) subunits (α1c, α2δ, and β1) (Rattus norvegicus, UniProt P22002).
T2 construct: expressed in transfected cells; α1c in pcDNA6.2DEST, β1 in pcDNA3.2DEST, α2δ in pcDNA3.1-Zeo
T2 sequence (P22002 whole entry): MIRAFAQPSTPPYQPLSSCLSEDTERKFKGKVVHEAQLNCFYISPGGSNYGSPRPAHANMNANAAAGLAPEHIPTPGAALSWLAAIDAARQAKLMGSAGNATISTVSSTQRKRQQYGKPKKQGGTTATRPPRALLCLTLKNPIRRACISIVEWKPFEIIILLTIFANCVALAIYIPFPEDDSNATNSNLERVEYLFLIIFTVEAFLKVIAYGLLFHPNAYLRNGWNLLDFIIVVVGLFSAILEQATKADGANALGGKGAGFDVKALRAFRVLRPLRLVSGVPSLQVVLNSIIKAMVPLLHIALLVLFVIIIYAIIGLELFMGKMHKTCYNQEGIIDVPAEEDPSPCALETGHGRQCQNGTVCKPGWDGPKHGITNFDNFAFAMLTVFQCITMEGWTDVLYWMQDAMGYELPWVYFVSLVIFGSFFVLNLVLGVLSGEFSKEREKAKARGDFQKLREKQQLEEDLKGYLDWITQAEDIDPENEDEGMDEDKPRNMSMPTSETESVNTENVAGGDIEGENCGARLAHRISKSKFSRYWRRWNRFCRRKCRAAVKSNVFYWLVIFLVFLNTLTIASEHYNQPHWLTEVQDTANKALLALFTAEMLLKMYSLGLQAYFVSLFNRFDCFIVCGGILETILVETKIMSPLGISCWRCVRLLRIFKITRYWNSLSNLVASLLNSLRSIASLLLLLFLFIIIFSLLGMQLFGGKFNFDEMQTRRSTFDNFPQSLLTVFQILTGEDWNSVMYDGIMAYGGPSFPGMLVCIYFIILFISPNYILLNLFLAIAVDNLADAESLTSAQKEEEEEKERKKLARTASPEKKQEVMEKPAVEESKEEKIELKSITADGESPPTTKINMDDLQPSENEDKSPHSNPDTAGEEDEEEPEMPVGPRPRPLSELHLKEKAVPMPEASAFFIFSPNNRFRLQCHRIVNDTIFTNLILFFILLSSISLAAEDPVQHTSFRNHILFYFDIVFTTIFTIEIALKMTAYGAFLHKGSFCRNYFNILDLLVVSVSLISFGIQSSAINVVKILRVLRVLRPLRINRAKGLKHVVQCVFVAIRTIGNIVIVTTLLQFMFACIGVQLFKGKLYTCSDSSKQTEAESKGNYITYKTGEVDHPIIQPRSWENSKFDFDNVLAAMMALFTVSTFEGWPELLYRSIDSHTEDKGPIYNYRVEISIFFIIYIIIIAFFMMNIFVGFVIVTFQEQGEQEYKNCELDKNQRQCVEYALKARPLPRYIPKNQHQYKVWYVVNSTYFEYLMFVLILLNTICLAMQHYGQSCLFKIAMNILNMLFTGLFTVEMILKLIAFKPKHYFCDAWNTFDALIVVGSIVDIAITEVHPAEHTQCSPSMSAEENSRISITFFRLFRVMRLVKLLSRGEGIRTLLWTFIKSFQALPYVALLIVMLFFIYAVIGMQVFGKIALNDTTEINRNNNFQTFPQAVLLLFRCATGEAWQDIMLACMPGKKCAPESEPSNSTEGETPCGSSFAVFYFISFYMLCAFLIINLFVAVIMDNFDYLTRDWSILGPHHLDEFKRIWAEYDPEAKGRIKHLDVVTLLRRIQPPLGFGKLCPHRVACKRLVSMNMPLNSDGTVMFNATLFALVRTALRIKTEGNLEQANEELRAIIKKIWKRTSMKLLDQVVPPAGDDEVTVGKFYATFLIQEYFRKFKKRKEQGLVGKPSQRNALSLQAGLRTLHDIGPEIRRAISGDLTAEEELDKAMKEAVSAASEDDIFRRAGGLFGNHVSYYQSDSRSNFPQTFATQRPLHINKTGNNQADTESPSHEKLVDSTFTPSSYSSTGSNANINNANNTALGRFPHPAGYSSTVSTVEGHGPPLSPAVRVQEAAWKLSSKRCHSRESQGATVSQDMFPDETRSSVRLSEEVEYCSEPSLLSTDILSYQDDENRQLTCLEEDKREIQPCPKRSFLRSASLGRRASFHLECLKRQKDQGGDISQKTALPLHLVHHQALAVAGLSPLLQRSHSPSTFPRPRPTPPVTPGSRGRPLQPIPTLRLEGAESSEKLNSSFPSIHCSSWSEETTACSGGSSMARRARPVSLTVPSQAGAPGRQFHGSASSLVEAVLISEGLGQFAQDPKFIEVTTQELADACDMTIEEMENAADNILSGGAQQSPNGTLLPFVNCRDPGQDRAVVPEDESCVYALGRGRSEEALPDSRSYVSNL
T2 sequence (P54290 25-944 partner): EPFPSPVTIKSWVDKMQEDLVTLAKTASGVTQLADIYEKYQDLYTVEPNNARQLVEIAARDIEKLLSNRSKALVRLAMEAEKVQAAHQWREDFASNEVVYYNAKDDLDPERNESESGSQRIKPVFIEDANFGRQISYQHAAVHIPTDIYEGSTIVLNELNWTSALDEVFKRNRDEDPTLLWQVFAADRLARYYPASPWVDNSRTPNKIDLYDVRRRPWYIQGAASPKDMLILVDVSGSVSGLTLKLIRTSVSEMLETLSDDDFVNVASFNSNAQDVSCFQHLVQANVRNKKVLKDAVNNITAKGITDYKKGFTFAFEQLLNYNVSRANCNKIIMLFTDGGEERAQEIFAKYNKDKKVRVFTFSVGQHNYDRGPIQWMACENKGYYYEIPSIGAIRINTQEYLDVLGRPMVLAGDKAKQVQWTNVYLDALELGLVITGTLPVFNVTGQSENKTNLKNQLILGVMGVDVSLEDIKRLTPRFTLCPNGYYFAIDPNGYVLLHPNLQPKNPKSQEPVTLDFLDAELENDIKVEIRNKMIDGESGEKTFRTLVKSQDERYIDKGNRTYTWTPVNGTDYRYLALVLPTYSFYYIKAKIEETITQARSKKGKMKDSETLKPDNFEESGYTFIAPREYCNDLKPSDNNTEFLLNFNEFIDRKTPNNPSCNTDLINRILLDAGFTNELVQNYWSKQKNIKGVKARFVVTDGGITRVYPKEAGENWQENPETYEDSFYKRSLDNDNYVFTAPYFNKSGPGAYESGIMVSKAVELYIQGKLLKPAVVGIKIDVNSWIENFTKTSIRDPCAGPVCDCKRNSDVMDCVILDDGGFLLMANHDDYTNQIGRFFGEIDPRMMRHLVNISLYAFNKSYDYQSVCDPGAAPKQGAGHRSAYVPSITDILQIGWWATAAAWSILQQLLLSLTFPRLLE
T2 sequence (P54290 945-1091 partner): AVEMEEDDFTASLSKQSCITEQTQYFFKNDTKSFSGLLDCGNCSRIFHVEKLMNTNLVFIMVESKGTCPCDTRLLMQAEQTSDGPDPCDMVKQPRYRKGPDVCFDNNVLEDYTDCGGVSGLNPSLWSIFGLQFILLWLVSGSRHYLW
T2 sequence (P54283 whole entry partner): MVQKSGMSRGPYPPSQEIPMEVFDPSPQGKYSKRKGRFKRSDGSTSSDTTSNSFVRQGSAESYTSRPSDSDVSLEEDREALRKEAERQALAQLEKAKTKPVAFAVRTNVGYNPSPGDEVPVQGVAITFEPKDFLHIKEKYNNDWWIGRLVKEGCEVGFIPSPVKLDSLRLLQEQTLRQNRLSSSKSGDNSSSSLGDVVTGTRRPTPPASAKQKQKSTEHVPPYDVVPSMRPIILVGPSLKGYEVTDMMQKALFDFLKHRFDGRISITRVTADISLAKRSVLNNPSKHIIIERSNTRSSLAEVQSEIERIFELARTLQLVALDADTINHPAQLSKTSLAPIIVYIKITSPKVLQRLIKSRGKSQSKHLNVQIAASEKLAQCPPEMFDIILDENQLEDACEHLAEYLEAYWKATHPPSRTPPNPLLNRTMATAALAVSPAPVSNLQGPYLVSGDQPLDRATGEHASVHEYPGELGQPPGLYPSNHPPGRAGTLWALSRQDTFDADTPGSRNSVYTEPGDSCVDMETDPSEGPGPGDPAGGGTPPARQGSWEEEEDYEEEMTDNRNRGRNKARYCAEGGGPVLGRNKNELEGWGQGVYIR
Put plainly: FLIPR calcium mobilization assay for L-type calcium channel. It counts as cell-based. To be noted: calcium mobilization in vitro assay; HEK293 cells stably expressing rat LTCC subunits, 90 mM KCl. How it is done:
Recombinant human embryonal kidney cells (HEK293, ATCC) stably transfected with either N-type calcium channel (NTCC) subunits (α1b (SEQ ID NOs: 13 to 15), α2δ (SEQ ID Nos: 16, 17), and β3 (SEQ ID NOs:18 to 20)) or L-type calcium channel (LTCC) subunits (α1c (SEQ ID NOs:21, 22), α2δ, and β1 (SEQ ID NOs:23 to 25)) were routinely cultured in growth medium consisting of Dulbecco's Modified Eagles Medium containing 10% FBS, 100 U/mL penicillin, 100 μg/mL streptomycin, 4 mM L-glutamine, 500 μg/mL geneticin (G418), 20 μg/mL Blasticidin S (InVivogen, San Diego, Calif.) and 500 μg/mL zeocin (InVivogen).
FLIPR Calcium Mobilization Assay for L-type Calcium Channel. One day prior to performing this assay, HEK293 cells stably expressing recombinant rat L-type calcium channel (LTCC) subunits (α1c, α2δ, and β1) were trypsinized, then seeded on poly-D-lysine-coated 96-well clear-bottom black plates (Becton Dickinson, Franklin Lakes, N.J.) at 75,000 cells/well. On the day of the assay, the plates were washed with LTCC wash buffer (127 mM NaCl, 2 mM MgCl2, 700 μM NaH2PO4, 5 mM CaCl2, 5 mM NaHCO3, 8 mM HEPES, 10 mM glucose, pH 7.4), then loaded with 0.1 mL of LTCC wash buffer containing Fluo-4 (3 μM final concentration, Molecular Probes, Eugene, Oreg.). After 1 hour, the cells were washed with 0.1 mL LTCC wash buffer and resuspended in 0.05 mL LTCC assay buffer (same composition as LTCC wash buffer). Plates were then transferred to a FLIPR^96 for assay. The FLIPR measured basal Fluo-4 fluorescence for 15 seconds, then added 0.05 mL of each compound tested diluted in LTCC assay buffer at final concentrations ranging from about 846 pM to about […]. Fluo-4 fluorescence was then measured for 5 minutes. 0.1 mL KCl agonist dissolved in LTCC assay buffer was then added to the cells to produce a final concentration of 90 mM KCl, and fluorescence was measured for another 45 seconds. Data were collected over the entire time course and analyzed using Excel, Graph Pad Prism, or an in-house regression analysis software.
L-type Recombinant Cell Line Development. L-type calcium channel expressing HEK-293 cells were created in two stages. Stage 1 was created as follows. The rat α1c, and β1 cDNA expression constructs (2.5 μg each) were co-transfected into human embryonic kidney (HEK-293) cells by Lipofectamine Plus reagent (Invitrogen), as per manufacturer's instructions. 24 hours later, cells were split in limiting dilution into multiple 96-well plates in selection media containing 20 μg/mL blasticidin and 500 μg/mL geneticin, and incubated for 3 weeks at 37° C., 5% CO2, 95% humidity. Plates containing ≦1 clone per well were cultured until wells positive for single clones were confluent. Individual clones were then arrayed into columns of a destination 96-well plate, and partly split into 6-well plates for culture maintenance. Array plates were washed once with LTCC wash (or assay) buffer and cells loaded for 1 hour with 0.1 mL of LTCC buffer containing Fluo-4 (3 μM final concentration, Molecular Probes). Then they were washed twice with 0.1 mL of LTCC buffer, and replaced with 0.1 mL LTCC buffer. Plates were then transferred to a FLIPR^96 for assay. The FLIPR measured basal Fluo-4 fluorescence for 315 seconds, then added 0.1 mL KCl agonist dissolved in LTCC buffer and measured fluorescence for another 45 seconds. Final KCl concentration was 90 mM. Data were collected over the entire time course and analyzed using Excel, Graph Pad Prism, or Activity Base software. The clone with the greatest signal-to-noise ratio, best stability of response with passage number, and best adhesion to PDL precoated plates (Becton Dickinson) was expanded, characterized and used for stage 2 cell line development.
Stage 2 of L-type cell line development was carried out as follows. The rat α2δ cDNA expression construct (5 μg each) was transfected into the stage 1 L-type clonal cell line by Lipofectamine Plus reagent (Invitrogen), as per manufacturer's instructions. […]

Some results are limits rather than exact numbers.

On to `CC(CC(=O)NC(C)(C)C)N1CCC(N(C(C)C)S(=O)(=O)c2cccc(C(F)(F)F)c2)CC1` (centres unmarked) [Compound 25, 3-{4-[Isopropyl-(3-trifluoromethyl-benzenesulfonyl)amino]piperidin-1-yl}-N-tert-butyl-butyramide], for which the values for the IC50 in assay [1] and in assay [2] were 0.24 µM and 8.45 µM, respectively.

With `CC(C)N(C1CCN(CC(=O)NC2CCCCCC2)CC1)S(=O)(=O)c1cccc(C(F)(F)F)c1` [Compound 31c, N-Cycloheptyl-2-{4-[isopropyl-(3-trifluoromethyl-benzenesulfonyl)-amino]-piperidin-1-yl}-acetamide], the results for the IC50 in assay [1] and in assay [2] were 0.26 µM and 7.85 µM, respectively.

For `COC(=O)c1ccccc1N1CCC(N(C2CC2)S(=O)(=O)c2cccc(C(F)(F)F)c2)CC1` [Compound 10a, 2-{4-[Cyclopropyl-(3-trifluoromethyl-benzenesulfonyl)amino]piperidin-1-yl}benzoic acid methyl ester], the results for the IC50 in assay [1] and in assay [2] were 0.9 µM and greater than 20 µM, respectively.

As for `CC(C)N(C1CCN(CCC(=O)N2CCCCC2)CC1)S(=O)(=O)c1cccc(C(F)(F)F)c1` [Compound 18, N-Isopropyl-N-[1-(3-oxo-3-piperidin-1-yl-propyl)-piperidin-4-yl]-3-trifluoromethyl-benzenesulfonamide], the IC50 in assay [1] is 0.77 µM; in assay [2], greater than 20 µM.

As to `CCOC(=O)C(C)(C)N1CCC(N(C(C)C)S(=O)(=O)c2cccc(C(F)(F)F)c2)CC1` [Compound 8b, 2-{4-[Isopropyl-(3-trifluoromethyl-benzenesulfonyl)amino]piperidin-1-yl}-2-methylpropionic acid ethyl ester], the IC50 was 0.62 µM in assay [1] and greater than 20 µM in assay [2].

As to `CC(C)N(C1CCN(C2CCN(c3ccccc3)C2=O)CC1)S(=O)(=O)c1cccc(C(F)(F)F)c1` (centres unmarked) [Compound 27a, N-Isopropyl-N-[1-(2-oxo-1-phenyl-pyrrolidin-3-yl)-piperidin-4-yl]-3-trifluoromethyl-benzenesulfonamide], the IC50 in assay [1] is 0.55 µM; in assay [2], greater than 20 µM.

In the case of `CC(C)N(C1CCN(CC(=O)N2CCCCCC2)CC1)S(=O)(=O)c1cccc(C(F)(F)F)c1` [Compound 31a, N-[1-(2-Azepan-1-yl-2-oxo-ethyl)-piperidin-4-yl]-N-isopropyl-3-trifluoromethyl-benzenesulfonamide], the results for the IC50 in assay [1] and in assay [2] were 0.3 µM and greater than 20 µM, respectively.
